Where a name gives a salt, the structure may show the parent alone.
Assays:
Rutgers tomato seedlings = assay: Transpiration rate of Rutgers tomato seedlings after foliar spray (LiCor 1600 porometer); type: in vivo; settings: for Transpiration rate as a percentage of control, Average of days 1, 2, and 3 after treatment: average of days 1-3
Protocol: (§1) Seedlings of Rutgers Tomato were sprayed with 4 ml water or treatment solution at the 3-4 leaf stage and held under well watered conditions in a greenhouse. Transpiration was measured daily for 3 days after treatment with a LiCor 1600 porometer. Transpiration readings were converted to percent of control to compensate for daily differences due to environmental factors like light intensity, humidity, and temperature.

Rutgers Tomato = assay: Relative suppression effect of selective S-(+)-ABA formulations on Rutgers Tomato (regression); type: in vivo; settings: treatment at 100 ppm
Protocol: as §1

[1] = cited from earlier work

CC1=CC(=O)CC(C)(C)[C@@]1(O)/C=C/C(C)=C\C(=O)O [ABA, ammonium salt of (S)-(+)-abscisic acid]
Transpiration rate as a percentage of the transpiration rate of control plants, 1 day after treatment (Rutgers tomato seedlings; 75 ppm spray, 4 ml, 3-4 leaf stage): 91%
Transpiration rate as a percentage of the transpiration rate of control plants, 2 days after treatment (Rutgers tomato seedlings; 75 ppm spray): 94%
Transpiration rate as a percentage of the transpiration rate of control plants, 3 days after treatment (Rutgers tomato seedlings; 75 ppm spray): 72%
Transpiration rate as a percentage of control, Average of days 1, 2, and 3 after treatment (Rutgers tomato seedlings; 75 ppm spray): 86%
Transpiration rate as a percentage of the transpiration rate of control plants, 1 day after treatment (Rutgers tomato seedlings; 250 ppm spray): 72%
Transpiration rate as a percentage of the transpiration rate of control plants, 2 days after treatment (Rutgers tomato seedlings; 250 ppm spray): 102%
Transpiration rate as a percentage of the transpiration rate of control plants, 3 days after treatment (Rutgers tomato seedlings; 250 ppm spray): 75%
Transpiration rate as a percentage of control, Average of days 1, 2, and 3 after treatment (Rutgers tomato seedlings; 250 ppm spray): 83%
Transpiration rate as a percentage of the transpiration rate of control plants, 1 day after treatment (Rutgers tomato seedlings; 750 ppm spray): 60%
Transpiration rate as a percentage of the transpiration rate of control plants, 2 days after treatment (Rutgers tomato seedlings; 750 ppm spray): 83%
Transpiration rate as a percentage of the transpiration rate of control plants, 3 days after treatment (Rutgers tomato seedlings; 750 ppm spray): 68%
Transpiration rate as a percentage of control, Average of days 1, 2, and 3 after treatment (Rutgers tomato seedlings; 750 ppm spray): 70%
Transpiration rate as a percentage of the transpiration rate of control plants, 1 day after treatment (Rutgers tomato seedlings; 2500 ppm spray): 36%
Transpiration rate as a percentage of the transpiration rate of control plants, 2 days after treatment (Rutgers tomato seedlings; 2500 ppm spray): 35%
Transpiration rate as a percentage of the transpiration rate of control plants, 3 days after treatment (Rutgers tomato seedlings; 2500 ppm spray): 43%
Transpiration rate as a percentage of control, Average of days 1, 2, and 3 after treatment (Rutgers tomato seedlings; 2500 ppm spray): 38%
Effect of spraying on transpiration (in words) (Rutgers tomato seedlings; Rutgers tomato seedlings, spray): reduced transpiration in a dose dependant manner
Equivalent to s-ABA (ppm) ABA (ppm) (Rutgers Tomato; Rutgers Tomato, regression): 100 ppm
Log[ABA] (Rutgers Tomato; log of equivalent s-ABA ppm): 2.00
(Regression) Calculated Enhancement (Rutgers Tomato; relative to 100 ppm ABA): 1.00

CC1=CC(=O)CC(C)(C)[C@@]1(O)/C=C/C(C)=C\C(=O)O [abscisic acid, S-(+)-abscisic acid]
solubility in hard water (in words) ([1]; hard water, compared with pure water): even less
highest concentration that can be achieved in pure water ([1]; pure water at room temperature): about 3000 ppm
water solubility ([1]; water at 24° C.): ~3 grams/1000 mL

Reference: US20110065581A1, “Liquid Compositions Containing S-(+)-Abscisic Acid in Combination with Selected Lipophilic Agents and Methods of their Preparation” (priority 2007, published 2011)
